Measurements from patent US20110076283A1, “METHOD FOR PREDICTING AND DIAGNOSING BRAIN TUMOR” (Universite De Lausanne, priority 2008, published 2011).

Tests used:
[1] = tested on: glioblastoma; assay: Multivariate Cox proportional hazards model of the treatment effect on survival (chemoradiotherapy versus radiotherapy alone) in glioblastoma patients; type: in vivo, human; details: MGMT-methylated patients, multivariate Cox model N = 68
Experimental: Gene expression profiles were established from 80 frozen GBM samples obtained from 76 patients, comprising 70 tumors from initial surgery, and 10 samples resected at recurrence, and from four non-neoplastic brain tissue samples. All patients were treated within a phase II, or a randomized phase III trial {Stupp, 2005 #2126} and provided written informed consent for molecular studies of their tumor. The protocol was approved by the ethics committee at each center. Sixty-eight patients with complete molecular and clinical information were included in survival analysis, with a median age of 51 years (range: 26-70 yrs) at enrollment. Thereof, 42 received TMZ/RT→TMZ, while 26 were randomized to RT only. Second-line therapy frequently involved alkylating agents including TMZ. The validation set comprised 76 independent patients of the EORTC/NCIC-study (Stupp et al., 2005), 39 randomized to TMZ/RT→TMZ, and 37 to RT (median age 54 yrs, range 25-69 yrs), whose GBM were available on a tissue microarray. There was no difference in survival as compared to the general trial population, neither in the test population, nor the validation set (P>0.2).
For each covariate, the hazards ratio, its 95% confidence interval and the associated Wald p-value were examined The Benjamini Hochberg procedure ^s was applied as multiple testing correction method to convert p-values into estimated false discovery rates (FDR). The hazards ratio for a gene (or the mean of a cluster) were standardized by referring them to a variation corresponding to an interquartile range, in order to obtain an interpretable value, for microarray as well as for real-time PCR data. Therefore, the interpretation of an estimated hazard ratio of 1.5 is that the hazard rate increases by 50 percent for an increase of one interquartile range of the log-scale gene expression, independently of the expression level at which it is calculated.
The log-hazard function was defined as:
g(t,X,TMZ,MGMT,age,β)=ln [h0(t)]+β1X+β2TMZ+β3MGMT+β4age+β5(X*TMZ)+β6(TMZ*MGMT) […]

[2] = tested on: glioblastoma; details: glioblastoma patients; in particular with epigenetically silenced MGMT gene; cited from earlier work
[3] = tested on: glioblastoma; details: in conjunction with TMZ/RT→TMZ; patients with a methylated MGMT gene promoter; cited from earlier work

Compound | Estimated Hazard Ratios (HR) for Treatment Effect ([1]; G98 expression level 1st quartile) | Estimated Hazard Ratios (HR) for Treatment Effect ([1]; G98 expression level 3rd quartile) | Estimated Hazard Ratios (HR) for Treatment Effect ([1]; G98 expression level median) | survival [2] | anti-tumor activity [3]
Cn1nnc2c(C(N)=O)ncn2c1=O [TMZ/RT→TMZ, temozolomide] | 0.13 | 0.47 | 0.25 | significantly prolong survival | –
CC(C)[C@H]1C(=O)N[C@@H](CCCN=C(N)N)C(=O)NCC(=O)N[C@@H](CC(=O)O)C(=O)N[C@H](Cc2ccccc2)C(=O)N1C [cilengitide] | – | – | – | – | increased anti-tumor activity
